One data set relates to SNU-16. As to the kind of experiment: Antitumor activity against human SNU16 cells xenografted in nude BALB/c mouse assessed as tumor growth inhibition relative to control. The format is functional.
The nature of data set [1]: Toxicity in mouse. To be noted: in vivo. It counts as organism-based.
A short description of data set [2]: Tmax in CD-1 mouse administered as single po dose by mass spectrometry. The format is ADME, organism-based. The note with it: in vivo.
A short description of data set [3]: Efflux ratio of apparent intrinsic permeability in human Caco2 cells after 120 mins by mass spectrometry. To be noted: Caco-2. The format is ADME, cell-based.
Data set [4] can be described thus: in vitro. The note with it: human, Caco-2.
Description: Apparent intrinsic permeability in human Caco2 cells from apical to basolateral side after 120 mins by mass spectrometry
Data set [5] in a line: in vitro. The note with it: human, Caco-2. The source holds these as a separate data set.
Description: Apparent intrinsic permeability in human Caco2 cells from basolateral to apical side after 120 mins by mass spectrometry
Data set [6] is described as follows: Drug recovery in plasma (unknown origin). It counts as ADME, cell-free.
A short description of data set [7]: Stability in human plasma assessed as parent compound remaining after 4 hrs relative to initial time. It counts as ADME, cell-free. The note with it: read-out: Stability.
Data set [8] is described as follows: Stability in human plasma assessed as parent compound remaining after 2 hrs relative to initial time. The format is ADME, cell-free. The note with it: read-out: Stability.
A short description of data set [9]: Stability in human plasma assessed as parent compound remaining after 75 mins relative to initial time. It counts as ADME, cell-free. The note with it: read-out: Stability.

The results in this text go back to ChEMBL document CHEMBL4184281, “Pharmacology and in vivo efficacy of pyridine-pyrimidine amides that inhibit microtubule polymerization” (Bioorg Med Chem Lett, 2018).

Each structure is given as a SMILES string.

Turning to `O=C(Nc1ccc(-c2cccc(Cl)c2)cn1)c1cncnc1`, the tumour growth inhibition (TGI) with SNU-16 amounted to 66%. The same molecule registered an MTD in data set [1] of no more than 6 mg/kg.
For `Cc1ncc(C(=O)Nc2ccc(-c3cccc(NC4CC4)c3)cn2)cn1`, in data set [2], the time of peak concentration (Tmax) was no more than 15 min. Further, the TGI in the data set with SNU-16 is on record as 67%. In [1], this molecule showed an MTD of no more than 6 mg/kg.
On to `CNC(=C[N+](=O)[O-])NCCSCc1ccc(CN(C)C)o1` [RANITIDINE], for which the efflux ratio at 2 h in [3] came to 3.24. In the data set “in vitro [4]”, this molecule showed a Papp A→B at 2 h of 0.87 ×10⁻⁶ cm/s. For the same molecule, the basolateral-to-apical permeability (Papp B→A) at 2 h in “in vitro [5]” came to 2.83 ×10⁻⁶ cm/s.
As for `O=C(Nc1ccc(-c2cccc(C3CC3)c2)cn1)c1cncnc1`, in data set [2], the Tmax is no more than 15 min. In addition, in the data set with SNU-16, the TGI amounted to 74%. The MTD in data set [1] is no more than 6 mg/kg.
For the molecule `Cc1ncc(C(=O)Nc2ccc(-c3cccc(C4CC4)c3)cn2)cn1`, the Tmax in data set [2] was no more than 15 min. In addition, in the data set on SNU-16, the TGI was 73%. Also, the MTD in data set [1] is no more than 6 mg/kg.
With `CC(=O)CC(c1ccccc1)c1c(O)c2ccccc2oc1=O` (configuration not stated) [WARFARIN], the Drug recovery in [6] was 98.63%.
Take `CC(C)[N+](C)(CCOC(=O)C1c2ccccc2Oc2ccccc21)C(C)C` [PROPANTHELINE]: in [7], the remaining at 4 h was found to be 0.34%. Also, in data set [8], the remaining at 2 h worked out at 5.16%. Further, the remaining at 1.25 h in [9] came out at 13.9%.
For `COC(=O)c1ccccc1-c1c2ccc(=N)cc-2oc2cc(N)ccc12.Cl` [RHODAMINE123], the efflux ratio at 2 h in [3] turned out to be 11.7. This molecule also gave an apparent permeability from apical to basolateral (Papp A→B) at 2 h in “in vitro [4]” of 0.61 ×10⁻⁶ cm/s. In “in vitro [5]”, this molecule had a Papp B→A at 2 h of 7.17 ×10⁻⁶ cm/s.
For `Cc1ccc(C(=O)Nc2ccc(-c3cccc(C4COC4)c3)cn2)cn1`, the Tmax in [2] is no more than 15 min. Further, the tumour growth inhibition (TGI) in the data set with SNU-16 is recorded as 69%. In data set [1], this molecule had an MTD of no more than 6 mg/kg.
As for `CC(C)NCC(O)COc1cccc2ccccc12` (configuration not stated) [PROPRANOLOL], the efflux ratio at 2 h in data set [3] amounted to 0.99. In the data set “in vitro [4]”, the Papp A→B at 2 h amounted to 21.2 ×10⁻⁶ cm/s. The molecule also yielded a Papp B→A at 2 h in the data set “in vitro [5]” of 21.1 ×10⁻⁶ cm/s.
